Laboratory results published in patent US20090326003A1, “PYRAZOLO (3, 4-B) PYRIDINE DERIVATIVES AS PDE4 INHIBITORS” (priority 2006, published 2009).

System: LPS-induced pulmonary neutrophilia
Assay: LPS induced pulmonary neutrophilia in rats, intratracheally administered PDE4 inhibitors
Type: in vivo
Details: rat, intratracheal (i.t.) 2 hours prior to LPS challenge, wet suspension in saline/tween; for inhibition of the neutrophilia: dose not stated
Excerpt: This assay is an animal model of inflammation in the lung—specifically neutrophilia induced by lipopolysaccharide (LPS)— and allows the study of putative inhibition of such neutrophilia (anti-inflammatory effect) by intratracheally (i.t.) administered PDE4 inhibitors. The PDE4 inhibitors are preferably in dry powder or wet suspension form. I.t. administration is one model of inhaled administration, allowing topical delivery to the lung.
Animals: Male CD (Sprague Dawley Derived) rats supplied by Charles River, Raleigh, N.C., USA or Charles River, United Kingdom are housed in groups of 5 rats per cage, acclimatized after delivery for at least 5 days with bedding/nesting material regularly changed, fed on SDS diet R1 pelleted food given ad lib, and supplied with daily-changed pasteurized animal grade drinking water.
Device for wet suspension administration: This is similar to the above but a blunt dosing needle, whose forward end is slightly angled to the needle axis, is used, with a flexible plastic portex canula inserted into the needle.
Wet suspensions of the drug (aqueous) can be prepared by adding the required volume of vehicle to the drug; the vehicle used can for example be saline alone or a mixture of saline/tween (e.g. 0.2% tween 80). The wet suspension is usually sonicated for ca. 10 minutes prior to use.
Preparation, and dosing with PDE 4 inhibitor: Rats are anaesthetized by placing the animals in a sealed Perspex chamber and exposing them to a gaseous mixture of isoflurane (4.5%), nitrous oxide (3 litres.minute^−1) and oxygen (1 litre.minute^−1). Once anaesthetized, the animals are placed onto a stainless steel i.t. dosing support table. They are positioned on their back at approximately a 35° angle. A light is angled against the outside of the throat to highlight the trachea. […]
Neutrophil cell counts: The Bronchoalveolar lavage (BAL) samples are centrifuged at ca. 1300 rpm for ca. 7 minutes. […] The total cells are also counted from the resuspension. From these two counts, the total numbers of neutrophils in the BAL are determined. […]

SMILES	ED50 for inhibition of neutrophilia	inhibition of the neutrophilia
CCc1nc2c(cnn2CC)c(NC2CCOCC2)c1CNC(=O)c1ccc(-c2ccc(C(=O)NCc3c(CC)nc4c(cnn4CC)c3NC3CCOCC3)cc2)cc1 [Example 23, N,N′-bis{[1,6-diethyl-4-(tetrahydro-2H-pyran-4-ylamino)-1H-pyrazolo[3,4-b]pyridin-5-yl]methyl}-4,4′-biphenyldicarboxamide]	about 50 micrograms/kg body weight	–
CCn1ncc2c(NC3CCOCC3)c(CNC(=O)c3cccc(-c4cccc(C(=O)NCc5c(C)nc6c(cnn6CC)c5NC5CCOCC5)c4)c3)c(C)nc21 [Example 29, N,N′-bis{[1-ethyl-6-methyl-4-(tetrahydro-2H-pyran-4-ylamino)-1H-pyrazolo[3,4-b]pyridin-5-yl]methyl}-3,3′-biphenyldicarboxamide]	–	about 40%
CCc1nc2c(cnn2CC)c(NC2CCOCC2)c1CNC(=O)c1ccc(C(=O)NCc2c(CC)nc3c(cnn3CC)c2NC2CCOCC2)o1 [Example 35, N,N′-bis{[1,6-diethyl-4-(tetrahydro-2H-pyran-4-ylamino)-1H-pyrazolo[3,4-b]pyridin-5-yl]methyl}-2,5furandicarboxamide]	–	about 43%
